Numbers after ± are expanded uncertainties.
Assay: molar heat capacity at constant pressure
Settings: 101.33 kPa, Small (less than 1 g) adiabatic calorimetry

For `CC(C)(C)c1ccc(Oc2ccc([N+](=O)[O-])cc2)cc1` [1-(tert-butyl)-4-(4-nitrophenoxy)benzene], the “molar heat capacity at constant pressure” value (177.11 K, Crystal) was 219.25 ± 1.2 J/K/mol, the “molar heat capacity at constant pressure” value (177.56 K, Glass) was 222.49 ± 1.2 J/K/mol and the “molar heat capacity at constant pressure” value (177.91 K, Crystal) was 219.83 ± 1.2 J/K/mol. For the same compound, the “molar heat capacity at constant pressure” value (178.36 K, Glass) was 223.49 ± 1.2 J/K/mol, the “molar heat capacity at constant pressure” value (178.7 K, Crystal) was 220.33 ± 1.2 J/K/mol and the “molar heat capacity at constant pressure” value (179.15 K, Glass) was 224.32 ± 1.2 J/K/mol. The “molar heat capacity at constant pressure” value (179.5 K, Crystal) was 221.5 ± 1.2 J/K/mol, the “molar heat capacity at constant pressure” value (179.94 K, Glass) was 224.99 ± 1.2 J/K/mol and the “molar heat capacity at constant pressure” value (180 K, Crystal) was 222.33 ± 1.2 J/K/mol. The “molar heat capacity at constant pressure” value (180.3 K, Crystal) was 222.33 ± 1.2 J/K/mol, the “molar heat capacity at constant pressure” value (180.74 K, Glass) was 225.74 ± 1.2 J/K/mol and the “molar heat capacity at constant pressure” value (181.08 K, Crystal) was 223.58 ± 1.2 J/K/mol. The “molar heat capacity at constant pressure” value (181.52 K, Glass) was 226.98 ± 1.2 J/K/mol, the “molar heat capacity at constant pressure” value (181.88 K, Crystal) was 224.41 ± 1.2 J/K/mol and the “molar heat capacity at constant pressure” value (182.67 K, Crystal) was 224.99 ± 1.2 J/K/mol. For the same compound, the “molar heat capacity at constant pressure” value (183.09 K, Glass) was 227.73 ± 1.2 J/K/mol, the “molar heat capacity at constant pressure” value (183.47 K, Crystal) was 225.82 ± 1.2 J/K/mol and the “molar heat capacity at constant pressure” value (183.89 K, Glass) was 229.73 ± 1.2 J/K/mol. The “molar heat capacity at constant pressure” value (184.26 K, Crystal) was 226.74 ± 1.2 J/K/mol, the “molar heat capacity at constant pressure” value (184.68 K, Glass) was 230.39 ± 1.2 J/K/mol and the “molar heat capacity at constant pressure” value (185.06 K, Crystal) was 227.57 ± 1.2 J/K/mol. For the same compound, the “molar heat capacity at constant pressure” value (185.47 K, Glass) was 231.56 ± 1.2 J/K/mol, the “molar heat capacity at constant pressure” value (185.85 K, Crystal) was 228.48 ± 1.2 J/K/mol and the “molar heat capacity at constant pressure” value (186.26 K, Glass) was 232.14 ± 1.2 J/K/mol. For the same compound, the “molar heat capacity at constant pressure” value (186.65 K, Crystal) was 229.15 ± 1.2 J/K/mol, the “molar heat capacity at constant pressure” value (187.05 K, Glass) was 232.97 ± 1.2 J/K/mol and the “molar heat capacity at constant pressure” value (187.44 K, Crystal) was 230.48 ± 1.2 J/K/mol. The “molar heat capacity at constant pressure” value (187.84 K, Glass) was 233.97 ± 1.2 J/K/mol, the “molar heat capacity at constant pressure” value (188.22 K, Crystal) was 231.31 ± 1.2 J/K/mol and the “molar heat capacity at constant pressure” value (188.63 K, Glass) was 234.63 ± 1.2 J/K/mol. The “molar heat capacity at constant pressure” value (189.02 K, Crystal) was 232.14 ± 1.2 J/K/mol, the “molar heat capacity at constant pressure” value (189.42 K, Glass) was 235.47 ± 1.2 J/K/mol and the “molar heat capacity at constant pressure” value (189.81 K, Crystal) was 233.3 ± 1.2 J/K/mol. For the same compound, the “molar heat capacity at constant pressure” value (190 K, Crystal) was 233.22 ± 1.2 J/K/mol, the “molar heat capacity at constant pressure” value (190.21 K, Glass) was 236.46 ± 1.2 J/K/mol and the “molar heat capacity at constant pressure” value (190.6 K, Crystal) was 233.97 ± 1.2 J/K/mol. For the same compound, the “molar heat capacity at constant pressure” value (190.99 K, Glass) was 237.29 ± 1.2 J/K/mol, the “molar heat capacity at constant pressure” value (191.39 K, Crystal) was 234.63 ± 1.2 J/K/mol and the “molar heat capacity at constant pressure” value (191.78 K, Glass) was 237.88 ± 1.2 J/K/mol. For the same compound, the “molar heat capacity at constant pressure” value (192.19 K, Crystal) was 235.38 ± 1.2 J/K/mol, the “molar heat capacity at constant pressure” value (192.57 K, Glass) was 238.87 ± 1.2 J/K/mol and the “molar heat capacity at constant pressure” value (192.98 K, Crystal) was 236.3 ± 1.2 J/K/mol. The “molar heat capacity at constant pressure” value (193.36 K, Glass) was 239.79 ± 1.2 J/K/mol, the “molar heat capacity at constant pressure” value (193.75 K, Crystal) was 236.96 ± 1.2 J/K/mol and the “molar heat capacity at constant pressure” value (194.13 K, Glass) was 240.95 ± 1.2 J/K/mol. The “molar heat capacity at constant pressure” value (194.54 K, Crystal) was 237.79 ± 1.2 J/K/mol, the “molar heat capacity at constant pressure” value (194.91 K, Glass) was 241.45 ± 1.2 J/K/mol and the “molar heat capacity at constant pressure” value (195.33 K, Crystal) was 238.54 ± 1.2 J/K/mol. The “molar heat capacity at constant pressure” value (195.7 K, Glass) was 241.95 ± 1.2 J/K/mol, the “molar heat capacity at constant pressure” value (196.12 K, Crystal) was 239.46 ± 1.2 J/K/mol and the “molar heat capacity at constant pressure” value (196.49 K, Glass) was 243.2 ± 1.2 J/K/mol. The “molar heat capacity at constant pressure” value (196.91 K, Crystal) was 240.62 ± 1.2 J/K/mol, the “molar heat capacity at constant pressure” value (197.27 K, Glass) was 243.95 ± 1.2 J/K/mol and the “molar heat capacity at constant pressure” value (197.7 K, Crystal) was 241.29 ± 1.2 J/K/mol. The “molar heat capacity at constant pressure” value (198.06 K, Glass) was 245.11 ± 1.3 J/K/mol, the “molar heat capacity at constant pressure” value (198.49 K, Crystal) was 242.12 ± 1.2 J/K/mol and the “molar heat capacity at constant pressure” value (198.84 K, Glass) was 245.94 ± 1.3 J/K/mol. The “molar heat capacity at constant pressure” value (199.28 K, Crystal) was 243.03 ± 1.2 J/K/mol, the “molar heat capacity at constant pressure” value (199.63 K, Glass) was 246.69 ± 1.3 J/K/mol and the “molar heat capacity at constant pressure” value (200 K, Crystal) was 244.28 ± 1.3 J/K/mol. For the same compound, the “molar heat capacity at constant pressure” value (200.07 K, Crystal) was 244.03 ± 1.2 J/K/mol, the “molar heat capacity at constant pressure” value (200.62 K, Glass) was 248.02 ± 1.3 J/K/mol and the “molar heat capacity at constant pressure” value (201.06 K, Crystal) was 245.28 ± 1.3 J/K/mol. The “molar heat capacity at constant pressure” value (202.26 K, Crystal) was 246.86 ± 1.3 J/K/mol, the “molar heat capacity at constant pressure” value (203 K, Glass) was 251.26 ± 1.3 J/K/mol and the “molar heat capacity at constant pressure” value (203.46 K, Crystal) was 247.94 ± 1.3 J/K/mol. The “molar heat capacity at constant pressure” value (204.2 K, Glass) was 252.18 ± 1.3 J/K/mol, the “molar heat capacity at constant pressure” value (204.66 K, Crystal) was 249.18 ± 1.3 J/K/mol and the “molar heat capacity at constant pressure” value (205.4 K, Glass) was 253.42 ± 1.3 J/K/mol. The “molar heat capacity at constant pressure” value (205.86 K, Crystal) was 250.85 ± 1.3 J/K/mol, the “molar heat capacity at constant pressure” value (206.6 K, Glass) was 254.76 ± 1.3 J/K/mol and the “molar heat capacity at constant pressure” value (207.05 K, Crystal) was 252.26 ± 1.3 J/K/mol. For the same compound, the “molar heat capacity at constant pressure” value (207.79 K, Glass) was 256.09 ± 1.3 J/K/mol, the “molar heat capacity at constant pressure” value (208.26 K, Crystal) was 253.26 ± 1.3 J/K/mol and the “molar heat capacity at constant pressure” value (208.99 K, Glass) was 257.5 ± 1.3 J/K/mol. For the same compound, the “molar heat capacity at constant pressure” value (209.45 K, Crystal) was 254.42 ± 1.3 J/K/mol and the “molar heat capacity at constant pressure” value (210 K, Crystal) was 255.34 ± 1.3 J/K/mol.

Source: the NIST ThermoML archive (doi:10.1016/j.jct.2016.10.031)
